Data reported in PubChem BioAssay AID248 (DTP/NCI, 2004).
Where “and” joins values, the source holds several entries; their conditions need not be identical. Equal entries are not always repeated. Toxic doses and inconclusive results are not listed. No stated cut-off is given here; in the data, active means T/C of 150% or more; inactive means T/C below 125%.

Tested on: L1210 leukemia ip in BDF1 mice, survival T/C
Assay: NCI In Vivo Anticancer Drug Screen. Data for tumor model L1210 Leukemia (intraperitoneal) in B6D2F1 (BDF1) mice
Settings: endpoint: mean survival time, higher = longer survival
How it was run: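 Antitumor effect is assessed in tumor-bearing animals. Survival in the compound arm is compared with a vehicle-dosed control arm and expressed as their quotient.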

[1] = dose: 100.0 mg/kg/injection, schedule: Q01DX001 (ip), vehicle: Klucel (hydroxypropylcellulose) (HPC)
[2] = dose: 200.0 mg/kg/injection, schedule: Q01DX001 (ip), vehicle: Klucel (hydroxypropylcellulose) (HPC)
[3] = dose: 100.0 mg/kg/injection, schedule: Q04DX003 (ip), vehicle: Klucel (hydroxypropylcellulose) (HPC)
[4] = dose: 200.0 mg/kg/injection, schedule: Q04DX003 (ip), vehicle: Klucel (hydroxypropylcellulose) (HPC)
[5] = dose: 400.0 mg/kg/injection, schedule: Q01DX001 (ip), vehicle: Klucel (hydroxypropylcellulose) (HPC)
[6] = dose: 100.0 mg/kg/injection, schedule: Q01DX001 (ip), vehicle: saline
[7] = dose: 100.0 mg/kg/injection, schedule: Q04DX003 (ip), vehicle: saline
[8] = dose: 200.0 mg/kg/injection, schedule: Q01DX001 (ip), vehicle: saline
[9] = dose: 200.0 mg/kg/injection, schedule: Q04DX003 (ip), vehicle: saline
[10] = dose: 75.0 mg/kg/injection, schedule: Q01DX001 (ip), vehicle: other
[11] = dose: 150.0 mg/kg/injection, schedule: Q01DX001 (ip), vehicle: other
[12] = dose: 50.0 mg/kg/injection, schedule: Q01DX009 (ip), vehicle: saline
[13] = dose: 50.0 mg/kg/injection, schedule: Q01DX009 (ip), vehicle: saline with Tween-80
[14] = dose: 400.0 mg/kg/injection, schedule: Q01DX001 (ip), vehicle: saline
[15] = dose: 100.0 mg/kg/injection, schedule: Q01DX009 (ip), vehicle: saline
[16] = dose: 400.0 mg/kg/injection, schedule: Q01DX009 (ip), vehicle: saline
[17] = dose: 100.0 mg/kg/injection, schedule: Q01DX009 (ip), vehicle: saline with Tween-80
[18] = dose: 200.0 mg/kg/injection, schedule: Q01DX009 (ip), vehicle: saline with Tween-80
[19] = dose: 100.0 mg/kg/injection, schedule: Q04DX003 (ip), vehicle: saline with Tween-80
[20] = dose: 200.0 mg/kg/injection, schedule: Q04DX003 (ip), vehicle: saline with Tween-80
[21] = dose: 400.0 mg/kg/injection, schedule: Q04DX003 (ip), vehicle: saline with Tween-80
[22] = dose: 100.0 mg/kg/injection, schedule: Q01DX001 (ip), vehicle: carboxymethylcellulose (CMC)
[23] = dose: 100.0 mg/kg/injection, schedule: Q01DX009 (ip), vehicle: Klucel (hydroxypropylcellulose) (HPC)
[24] = dose: 200.0 mg/kg/injection, schedule: Q01DX009 (ip), vehicle: Klucel (hydroxypropylcellulose) (HPC)
[25] = dose: 400.0 mg/kg/injection, schedule: Q01DX009 (ip), vehicle: saline with Tween-80

Measured: T/C

Nc1ncnc2nc(-c3cccc([N+](=O)[O-])c3)[nH]c12
inactive: dose: 50.0 mg/kg/injection, schedule: Q01DX001 (ip), vehicle: Klucel (hydroxypropylcellulose) (HPC) 100 % of control | [1] 91 % of control | [2] 88 % of control

O=C(CCl)Nc1c(Cl)cc(Cl)cc1Cl
inactive: dose: 50.0 mg/kg/injection, schedule: Q04DX003 (ip), vehicle: Klucel (hydroxypropylcellulose) (HPC) 97 % of control | [1] 103 % of control | [3] 90 % of control | [2] 98 % of control | [4] 93 % of control | [5] 103 % of control

CCC(=O)/C=C/c1ccc([N+](=O)[O-])cc1
inactive: dose: 100.0 mg/kg/injection, schedule: Q04DX003 (ip), vehicle: other 101 % of control | dose: 200.0 mg/kg/injection, schedule: Q04DX003 (ip), vehicle: other 93 % of control | dose: 400.0 mg/kg/injection, schedule: Q04DX003 (ip), vehicle: other 93 % of control

O=S(=O)(O)F
inactive: dose: 50.0 mg/kg/injection, schedule: Q04DX003 (ip), vehicle: saline 96 % of control | [6] 94 % of control | [7] 89 % of control | [8] 94 % of control | [9] 96 % of control

O=C(NCC(F)(F)C(F)(F)C(F)(F)C(F)(F)C(F)(F)C(F)(F)C(F)(F)F)Oc1ccccc1
inactive: [10] 104 % of control | [11] 96 % of control | dose: 300.0 mg/kg/injection, schedule: Q01DX001 (ip), vehicle: other 94 % of control

NC(=O)/C=C/c1c[nH]c2nccnc12
inactive: dose: 1.56 mg/kg/injection, schedule: Q01DX009 (ip), vehicle: water 100 % of control | dose: 3.12 mg/kg/injection, schedule: Q01DX009 (ip), vehicle: water 95 % of control | dose: 6.25 mg/kg/injection, schedule: Q01DX009 (ip), vehicle: water 100 % of control | dose: 12.5 mg/kg/injection, schedule: Q01DX009 (ip), vehicle: water 103 % of control | dose: 25.0 mg/kg/injection, schedule: Q01DX009 (ip), vehicle: water 86 % of control and 90 % of control

CNC(=O)N(C)N
inactive: dose: 12.5 mg/kg/injection, schedule: Q01DX009 (ip), vehicle: saline 97 % of control | dose: 25.0 mg/kg/injection, schedule: Q01DX009 (ip), vehicle: saline 95 % of control | [12] 119 % of control

Cn1nc(N)c2ncc(C(Cl)(Cl)Cl)nc21
inactive: dose: 25.0 mg/kg/injection, schedule: Q01DX009 (ip), vehicle: saline with Tween-80 108 % of control | [13] 111 % of control

Cc1nc(SC(=N)N)nc2c1CCO2
inactive: [6] 96 % of control | [8] 97 % of control | [14] 88 % of control

CC1=CC(=O)CC(C)C1 (centres undefined)
inactive: [6] 111 % of control | [8] 94 % of control | [14] 103 % of control

O=C(O)CNCc1cccc(Cl)c1
inactive: [12] 94 % of control | [15] 101 % of control | [7] 95 % of control | [9] 93 % of control | [16] 101 % of control | dose: 400.0 mg/kg/injection, schedule: Q04DX003 (ip), vehicle: saline 102 % of control

COc1cc2c(cc1O)CCCC2=O
inactive: [13] 96 % of control | [17] 93 % of control | [18] 96 % of control

Oc1cc(-c2cc(O)c(O)c(O)c2)cc(O)c1O
inactive: [17] 104 % of control | [18] 108 % of control

CCOC(=O)C1=C(C)NC(C)=C(C(=O)OCC)C1c1ccc(Cl)cc1
inactive: [19] 98 % of control | [20] 93 % of control | [21] 88 % of control

N#C/C=C/C=C/C#N
inactive: [10] 98 % of control | [11] 103 % of control

CC(=O)OC1=C(OC(C)=O)N(S(=O)(=O)c2ccc(C)cc2)CCc2ccccc21
inactive: [22] 97 % of control | dose: 200.0 mg/kg/injection, schedule: Q01DX001 (ip), vehicle: carboxymethylcellulose (CMC) 94 % of control | dose: 400.0 mg/kg/injection, schedule: Q01DX001 (ip), vehicle: carboxymethylcellulose (CMC) 100 % of control

O=NN(C(=O)Nc1ccccc1)c1ccccc1
inactive: dose: 2.0 mg/kg/injection, schedule: Q01DX001 (ip), vehicle: carboxymethylcellulose (CMC) 106 % of control | dose: 4.0 mg/kg/injection, schedule: Q01DX001 (ip), vehicle: carboxymethylcellulose (CMC) 112 % of control | dose: 6.0 mg/kg/injection, schedule: Q01DX001 (ip), vehicle: carboxymethylcellulose (CMC) 112 % of control | dose: 8.0 mg/kg/injection, schedule: Q01DX001 (ip), vehicle: carboxymethylcellulose (CMC) 110 % of control | dose: 10.0 mg/kg/injection, schedule: Q01DX001 (ip), vehicle: carboxymethylcellulose (CMC) 104 % of control | dose: 12.5 mg/kg/injection, schedule: Q01DX001 (ip), vehicle: carboxymethylcellulose (CMC) 108 % of control | dose: 25.0 mg/kg/injection, schedule: Q01DX001 (ip), vehicle: carboxymethylcellulose (CMC) 100 % of control | dose: 50.0 mg/kg/injection, schedule: Q01DX001 (ip), vehicle: carboxymethylcellulose (CMC) 102 % of control | [22] 108 % of control

Nc1nc(N)c(CCCCc2ccccc2)c(-c2ccccc2)n1
inactive: dose: 50.0 mg/kg/injection, schedule: Q01DX009 (ip), vehicle: Klucel (hydroxypropylcellulose) (HPC) 98 % of control | [23] 95 % of control | [24] 95 % of control

CN(C)NC(=O)/C=C/c1ccccc1
inactive: [23] 112 % of control | [3] 94 % of control | [24] 102 % of control | [4] 100 % of control | dose: 400.0 mg/kg/injection, schedule: Q04DX003 (ip), vehicle: Klucel (hydroxypropylcellulose) (HPC) 87 % of control

NCC1CCCC1N (centres undefined)
inactive: dose: 18.8 mg/kg/injection, schedule: Q01DX009 (ip), vehicle: saline 102 % of control | dose: 37.5 mg/kg/injection, schedule: Q01DX009 (ip), vehicle: saline 102 % of control | dose: 75.0 mg/kg/injection, schedule: Q01DX009 (ip), vehicle: saline 97 % of control

COc1ccccc1NNS(=O)(=O)c1cccc([N+](=O)[O-])c1
inactive: dose: 75.0 mg/kg/injection, schedule: Q04DX003 (ip), vehicle: Klucel (hydroxypropylcellulose) (HPC) 104 % of control | [1] 100 % of control | dose: 150.0 mg/kg/injection, schedule: Q04DX003 (ip), vehicle: Klucel (hydroxypropylcellulose) (HPC) 94 % of control | [2] 103 % of control | dose: 300.0 mg/kg/injection, schedule: Q04DX003 (ip), vehicle: Klucel (hydroxypropylcellulose) (HPC) 104 % of control | [5] 105 % of control

O=C(CCCCCCC(=O)C[n+]1ccccc1CO)C[n+]1ccccc1CO
inactive: dose: 12.5 mg/kg/injection, schedule: Q04DX003 (ip), vehicle: saline 101 % of control

CC1(C)C2(c3ccccc3)C3C=CC3C12c1ccccc1 (centres undefined)
inactive: dose: 100.0 mg/kg/injection, schedule: Q04DX002 (ip), vehicle: Klucel (hydroxypropylcellulose) (HPC) 109 % of control | dose: 200.0 mg/kg/injection, schedule: Q04DX002 (ip), vehicle: Klucel (hydroxypropylcellulose) (HPC) 112 % of control | dose: 400.0 mg/kg/injection, schedule: Q04DX002 (ip), vehicle: Klucel (hydroxypropylcellulose) (HPC) 102 % of control

COC(=O)CC(OC)OC
inactive: [17] 107 % of control | [15] 103 % of control | [19] 89 % of control | [18] 100 % of control | dose: 200.0 mg/kg/injection, schedule: Q01DX009 (ip), vehicle: saline 103 % of control | [20] 102 % of control | [25] 97 % of control | [16] 105 % of control | [21] 101 % of control

CCCCCCCCCCCCCCCCOc1cccc(C=O)c1
inactive: [19] 97 % of control | [20] 93 % of control | [21] 116 % of control

O=C(c1cccs1)c1cccs1
inactive: [13] 98 % of control | [17] 100 % of control | [19] 102 % of control | [18] 94 % of control | [20] 107 % of control | [25] 96 % of control | [21] 101 % of control
